The source of these data is ChEMBL document CHEMBL1201862, “PubChem BioAssay data set” (2004).

The structures appear in SMILES notation.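 1) Cells in 96-well plates. 2) Compound, 48 h, 5 concentrations. 3) Linear interpolation between surrounding doses. 4) Unreached endpoint = highest concentration. GI50 marks 50% less growth.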 Calls of active or inactive are those of the source. Rule as the data show it: active = GI50 up to about 1.1 µM and inactive = higher.

Among the test systems are SK-MEL-2; 786-0; NCI-H226; T47D; CCRF-CEM; U-251; A549; LOX IMVI; NCI-H460; HCT-15; OVCAR-4; COLO 205; ACHN; PC-3; IGROV-1; OVCAR-3; EKVX; UACC-257; HOP-92.
Common to all, as to assay: inhibition of tumour cell growth, NCI panel, 48 h

Turning to `NC(=O)/N=C1\NCCC(=O)N1CCc1c[nH]c2ccccc12`, the GI50 in the test with SK-MEL-2 is 14.2 µM (inactive); in the test on 786-0, 24 µM (inactive); with NCI-H226 it was 18.2 µM (inactive); in the test on T47D it was 27.5 µM (inactive); with CCRF-CEM, 14.4 µM (inactive); in the test with U-251 it was 45.2 µM (inactive). In addition, the GI50 with A549 was 18.9 µM (inactive); in the test on LOX IMVI, 11 µM (inactive); in the test on NCI-H460, 16.3 µM (inactive); with HCT-15, 20 µM; in the test on OVCAR-4 it was 19 µM (inactive); with COLO 205, 14.1 µM (inactive). In addition, the GI50 with ACHN was 21.5 µM (inactive); with PC-3, 11.9 µM (inactive); in the test on IGROV-1, 21.2 µM (inactive); with OVCAR-3, 16 µM (inactive); in the test with EKVX it was 14.6 µM (inactive); in the test on UACC-257, 18.5 µM (inactive).
Take `CC1=COC(C)(C=C(C#N)C#N)CC1` (configuration not stated): the GI50 in the test with 786-0 is > 100 µM (inactive); with NCI-H226, > 100 µM (inactive); with T47D, 98.4 µM (inactive); with CCRF-CEM, 35.3 µM (inactive); in the test with U-251 it was > 100 µM (inactive); in the test with A549, > 100 µM (inactive). The GI50 in the test with HOP-92 was > 10 µM (inactive); in the test on NCI-H460, > 100 µM (inactive); with HCT-15 it was more than 10 µM; with OVCAR-4, > 100 µM (inactive); in the test with COLO 205 it was > 100 µM (inactive); with ACHN it was > 100 µM (inactive). Moreover, the GI50 was 88.3 µM (inactive) in the test with IGROV-1, > 100 µM (inactive) in the test with EKVX and 57.3 µM (inactive) in the test with UACC-257.
Turning to `CN(C)N1C(=O)CC2(CCN(CCCC(=O)c3ccc(F)cc3)CC2)C1=O`, the GI50 with SK-MEL-2, in the test on 786-0, in the test on NCI-H226, in the test on T47D, in the test with U-251 and with A549 was > 100 µM (inactive) each time. Further, the GI50 in the test on LOX IMVI is > 100 µM (inactive); in the test with NCI-H460, > 100 µM (inactive); with HCT-15 it was more than 100 µM; with COLO 205 it was > 100 µM (inactive); with ACHN, > 100 µM (inactive); in the test with PC-3, > 100 µM (inactive). For the same compound, the GI50 in the test on IGROV-1, with OVCAR-3 and in the test on UACC-257 was > 100 µM (inactive) in each case.
In the case of `CSC1=N/C(=C\c2cccs2)C(=O)N1CN1CCCCC1`, the GI50 with SK-MEL-2 was > 100 µM (inactive); in the test with 786-0 it was 65.6 µM (inactive); in the test with NCI-H226, 57.8 µM (inactive); in the test on CCRF-CEM, 18.7 µM (inactive); in the test on U-251 it was 79.6 µM (inactive); in the test with A549, > 100 µM (inactive). Also, the GI50 in the test with LOX IMVI was 23.1 µM (inactive); in the test on HOP-92, 28.2 µM (inactive); in the test with HCT-15, 37.2 µM; with COLO 205, 70.6 µM (inactive); with ACHN it was 28 µM (inactive); in the test with PC-3, > 100 µM (inactive). Besides, the GI50 in the test on IGROV-1 is 33.5 µM (inactive); in the test with OVCAR-3, > 100 µM (inactive); in the test with EKVX, 24 µM (inactive).
Turning to `C1=N\CCOCC/N=C/c2ccccc2OCc2cccc(n2)COc2ccccc2/1`, the GI50 in the test on SK-MEL-2 was 8.63 µM (inactive); in the test with 786-0, 10 µM (inactive); in the test with CCRF-CEM, 4.76 µM (inactive); with U-251, 6.04 µM (inactive); in the test with A549, > 25 µM (inactive); in the test with HOP-92, 10.4 µM (inactive). Moreover, the GI50 in the test on NCI-H460 is > 25 µM (inactive); in the test on HCT-15, 6.46 µM; in the test with OVCAR-4, 6.03 µM (inactive); in the test with COLO 205, 13 µM (inactive); with ACHN it was 9.23 µM (inactive); with PC-3, 8.93 µM (inactive). Also, the GI50 with IGROV-1 was 6.3 µM (inactive); with OVCAR-3, 3.51 µM (inactive); in the test with EKVX it was 16.6 µM (inactive); in the test on UACC-257, 8.11 µM (inactive).
With `COc1ccc(N[S+]([O-])c2ccccc2OC)cc1` (configuration not stated), the GI50 in the test on SK-MEL-2 was 11.8 µM (inactive); in the test with 786-0, 43.3 µM (inactive); with NCI-H226 it was 13.4 µM (inactive); in the test on T47D, 4.37 µM (inactive); in the test with CCRF-CEM, 26.1 µM (inactive); with U-251, 12.5 µM (inactive). For the same compound, the GI50 was 16.2 µM (inactive) in the test with A549; 10.3 µM (inactive) with LOX IMVI; 16 µM (inactive) in the test with NCI-H460; 5.16 µM with HCT-15; 53.7 µM (inactive) with OVCAR-4; 24.4 µM (inactive) with COLO 205. In addition, the GI50 with ACHN is 20.4 µM (inactive); in the test on IGROV-1, 7.87 µM (inactive); with OVCAR-3, 61.4 µM (inactive); in the test on EKVX, 38.9 µM (inactive); in the test on UACC-257, 33.7 µM (inactive).
Regarding `NC1=NC(=O)C2(NN1)c1ccccc1-c1ccccc12`, the GI50 in the test on SK-MEL-2 was > 10 µM (inactive); with 786-0, > 10 µM (inactive); in the test on NCI-H226, > 10 µM (inactive); in the test with T47D, 2.42 µM (inactive); in the test on CCRF-CEM it was > 10 µM (inactive); in the test with U-251, 7.62 µM (inactive). Further, the GI50 in the test with A549 was > 10 µM (inactive); with LOX IMVI, > 10 µM (inactive); in the test on HOP-92, > 10 µM (inactive); with NCI-H460 it was > 10 µM (inactive); in the test with HCT-15, more than 10 µM; in the test on COLO 205 it was > 10 µM (inactive). Further, the GI50 was 6.17 µM (inactive) in the test on ACHN, > 10 µM (inactive) with PC-3, > 10 µM (inactive) in the test on IGROV-1 and > 10 µM (inactive) in the test with OVCAR-3.
With `Cn1c2ccccc2c(=O)c2cccc(C(=O)NC(CCCNC(=N)N)C(=O)O)c21` (configuration not stated), the GI50 in the test with SK-MEL-2, in the test on 786-0, in the test on NCI-H226, with T47D, in the test on U-251 and in the test with A549 was > 100 µM (inactive) throughout. For the same compound, the GI50 with LOX IMVI is > 100 µM (inactive); with NCI-H460, > 100 µM (inactive); in the test with HCT-15, more than 100 µM; in the test with OVCAR-4 it was > 100 µM (inactive); in the test with COLO 205, > 100 µM (inactive); in the test with ACHN, > 100 µM (inactive). The GI50 in the test with PC-3 is > 100 µM (inactive); with IGROV-1, 30.1 µM (inactive); in the test with OVCAR-3 it was > 100 µM (inactive); with EKVX it was > 100 µM (inactive); in the test on UACC-257, > 100 µM (inactive).
Turning to `Cc1ccc(C2(c3ccc(C)cc3)SC(=C(C#N)C#N)c3ccccc32)cc1`, the GI50 in the test with SK-MEL-2 is 2.9 µM (inactive); in the test on 786-0 it was > 100 µM (inactive); in the test with NCI-H226, > 100 µM (inactive); in the test on T47D, > 100 µM (inactive); with CCRF-CEM, 58.3 µM (inactive); in the test on U-251, 18.1 µM (inactive). Besides, the GI50 was > 100 µM (inactive) with A549; > 100 µM (inactive) with HOP-92; > 100 µM (inactive) in the test on NCI-H460; 22.5 µM with HCT-15; > 100 µM (inactive) with ACHN; 83.9 µM (inactive) in the test on PC-3. For the same compound, the GI50 in the test with IGROV-1, with OVCAR-3 and with EKVX was > 100 µM (inactive) in each case.
As for `C=C1CC[C@@H](C)[C@](C)(CCc2ccoc2)C/C=C\C=C/1C(=O)O`, the GI50 was 19.1 µM (inactive) in the test on SK-MEL-2; 46.6 µM (inactive) in the test with 786-0; 35.6 µM (inactive) in the test on NCI-H226; 28.4 µM (inactive) in the test on CCRF-CEM; 34.3 µM (inactive) in the test on U-251; 36.2 µM (inactive) in the test on A549. The GI50 is 21.1 µM (inactive) in the test on LOX IMVI; 62.2 µM (inactive) with HOP-92; 30.2 µM (inactive) in the test with NCI-H460; 35.2 µM in the test with HCT-15; 39.5 µM (inactive) in the test with OVCAR-4; 21 µM (inactive) in the test on COLO 205. Moreover, the GI50 in the test on ACHN was 53.2 µM (inactive); in the test on PC-3, 28.9 µM (inactive); in the test with IGROV-1, 51.4 µM (inactive); with OVCAR-3, 19.3 µM (inactive); with EKVX, 64.6 µM (inactive); in the test with UACC-257 it was 53 µM (inactive).
For the compound `O=C1/C(=C/c2ccc(O)c([N+](=O)[O-])c2)CCC/C1=C\c1ccc(O)c([N+](=O)[O-])c1`, the GI50 was 11.4 µM (inactive) in the test on SK-MEL-2; 11.5 µM (inactive) in the test on 786-0; 11.6 µM (inactive) in the test with NCI-H226; 14.9 µM (inactive) in the test with T47D; 30 µM (inactive) in the test with CCRF-CEM; 9.33 µM (inactive) in the test with U-251. The GI50 is 11.7 µM (inactive) with A549; 9.89 µM (inactive) with LOX IMVI; 17.8 µM (inactive) with NCI-H460; 12.4 µM in the test on HCT-15; 18.9 µM (inactive) with OVCAR-4; 13.5 µM (inactive) in the test on COLO 205. In addition, the GI50 in the test on ACHN is 7.96 µM (inactive); in the test on PC-3 it was 13.3 µM (inactive); in the test with IGROV-1, 8.93 µM (inactive); in the test on OVCAR-3, 8.36 µM (inactive); in the test on EKVX it was 22.6 µM (inactive); with UACC-257 it was 10.5 µM (inactive).
`OCCN(C1=NCCN1)/[N+](=C\c1ccccn1)[CH-]c1ccccn1`: the GI50 in the test with 786-0, with NCI-H226, with T47D, in the test on CCRF-CEM, with U-251 and with A549 was > 100 µM (inactive) each time. The GI50 in the test with LOX IMVI was > 100 µM (inactive); with NCI-H460, > 100 µM (inactive); in the test on HCT-15 it was more than 100 µM; in the test with OVCAR-4, > 100 µM (inactive); with COLO 205, > 100 µM (inactive); in the test with ACHN, > 100 µM (inactive). The GI50 in the test on PC-3, with IGROV-1, in the test with OVCAR-3, in the test on EKVX and with UACC-257 was > 100 µM (inactive) throughout.
